For data set [1] the following is noted: cited from earlier work.
Data set [2] is described as follows: Phase solubility study (shake-flask) in buffers with 2-HP-β-CD. The following applies: for order of the solubility: compared with reported FCZ and L-173; for solubility at 3 days: thermodynamic from solid, solubility in pure buffer solution, pure buffer. Here is the method: An excess amount of the substance was placed in the glass screw-capped vials with the solvent. The vials were stirred in an air thermostat for a certain period of time (a period of 3 days was estimated to be enough for reaching the equilibrium between the solid and the solvent). Then, the saturated solutions were kept in a thermostat in mild conditions no less than 12 h and thereafter centrifuged at a fixed temperature (Biofuge pico, Thermo Electron LED GmbH, Langenselbold, Germany) for 10 min at 12,000 rpm. […] The experimental results were reported as an average of at least three replicated experiments. Temperature uncertainty was ±0.1 K. The sensitivity of UV spectroscopic determinations was characterized by the values of the limit of detection (LOD)/limit of quantification (LOQ).

Details of data set [3]: method as in doi:10.1016/j.molliq.2021.116535. The settings on record: cited from earlier work.
Data set [4] can be described thus: in vitro. It counts as in vitro ADME. The following applies: pH 7.4, pH 7.4; CD 0.01087 M; 310.15 K; read-out: Permeability Coefficient (Papp). The protocol: Permeability coefficients of RS-186 and R-98 were measured through the PermeaPad barrier (PHABIOC, Germany, Espelkamp, www.permeapad.com, accessed on 20 May 2021) of an effective surface area of 0.785 cm^2 in a vertical type of Franz diffusion cell (PermeGear, Inc., Hellertown, PA, USA) with 7 mL volume. PermeaPad is a biomimetic membrane proposed by di Cagno and Bauer-Brandl for the fast screening of the permeability of the marketed drugs and drug-like compounds. In brief, the barrier was mounted between the donor and receptor chambers. The donor chamber was filled with a stock solution of the investigated substance in buffer solution at pH 2.0 or pH 7.4 and was stirred vigorously during the permeability experiment. The receptor compartment contained 1 mL of the respective fresh buffer. The system was thermostated at 310.15 ± 0.1 K. A probe of 0.5 mL was withdrawn every 30 min from the receptor chamber and replaced with an equal amount of the respective fresh buffer. The permeation process followed the reverse dialysis. The withdrawn samples were analyzed in 96-well UV black plate (Costar) via spectrophotometer (Spectramax 190; Molecular devices, Molecular Devices Corporation, California, CA, USA) at the appropriate wavelength. The permeation profiles were plotted as the amount of the permeated drug over the surface area ( dQ/A ) versus the time ( t ). The flux ( J ) was calculated as a slope of permeation profiles according to the equation:(6) J=dQ/A×dt
The apparent permeability coefficient ( Papp ) was calculated by normalizing the flux measured over the concentration of the drug in the donor compartment ( C0 ), as described by the equation:(7) Papp=J/Co
Each permeability experiment was repeated at least 3 times and the average value of Papp was determined.

In brackets after ≈: the same amount, converted by molar mass.

For the molecule `CC(C)NCC(O)COc1cccc2ccccc12.Cl` (stereo not shown) [propranolol HCl], the “greater solubility of racemic compound as compared to enantiomer” value in data set [1] is given as 3.7 fold.
Consider `O=C(CN1C(=O)S/C(=C\c2ccc(Cl)cc2)C1=O)N1CCN(CC(O)(Cn2cncn2)c2ccc(F)cc2F)CC1` [L-173, (5Z)-5-[(4-chlorophenyl)methylidene]-3-(2-{4-[2-(2,4-difluorophenyl)-2-hydroxy-3-(1H-1,2,4-triazol-1-yl)propyl]piperazin-1-yl}-2-oxoethyl)-1,3-thiazolidine-2,4-dione, reference compound], for which the “order of the solubility” value in data set [2] (pH 2.0) is “(FCZ) > (RS-186 ≥ R-98) > (L-173)”; in data set [2] (pH 7.4), “(FCZ) > (R-98 ≥ RS-186) >> (L-173)”.
On to `CC(C)Cc1ccc(C(C)C(=O)O)cc1` (stereo not shown) [ibuprofen], for which, in data set [1] (pH 1.5), the “greater solubility of enantiomer against the racemate” value was “twice”.
In the case of `OC(Cn1cncn1)(Cn1cncn1)c1ccc(F)cc1F` [FCZ, fluconazole], the “order of the solubility” value in data set [2] (pH 2.0) is reported as “(FCZ) > (RS-186 ≥ R-98) > (L-173)”; in data set [2] (pH 7.4), “(FCZ) > (R-98 ≥ RS-186) >> (L-173)”. Besides, the “Papp (PermeaPad)” value in data set [3] is 1.9e-05 cm/s.
As a reminder, the solubility is the concentration that dissolves in the medium under given conditions. A low value points to little dissolved substance. Broadly, the Papp is a coefficient for how fast a substance crosses the barrier. Consider `O=C1S/C(=C\c2ccc(Cl)cc2)C(=O)N1CC(O)CN1CCN(CC(O)(Cn2cncn2)c2ccc(F)cc2F)CC1` (stereo not shown) [R-98, (Z)-5-(4-chlorobenzylidene)-3-(3-(4-(2-(2,4-difluorophenyl)-2-hydroxy-3-(1H-1,2,4-triazol-1-yl)propyl)piperazin-1-yl)-2-hydroxypropyl)thiazolidine-2,4-dione], for which the solubility at 3 days amounted to 620 µM (≈ 384 µg/mL) in data set [2] (pH 2, aqueous buffer, pH 2.0) and 18 µM (≈ 11.1 µg/mL) in data set [2] (pH 7.4, aqueous buffer, pH 7.4). The Papp in data set [4] came out at 1.19 ×10⁻⁶ cm/s.

(Values after PMC9025555, “Chiral Recognition R- and RS- of New Antifungal: Complexation/Solubilization/Dissolution Thermodynamics and Permeability Assay” (Pharmaceutics, 2022).)
